Source: patent US11478496B2, “Treatments of prostate cancer” (THE FLORIDA INTERNATIONAL UNIVERSITY BOARD OF TRUSTEES, priority 2020, dated 2022)

Key:
LIG I = LIG I (Homo sapiens, UniProt P18858); experiment: LIG I activity on nicked substrate; assay type: biochemical; conditions: 5 nM LIG I
Protocol: (§1) Lane 1 represents the substrate only. Lanes 2 and 3 indicates the reaction mixture with 5 nM LIG I in the absence and presence of DMSO. […] The substrate was ^32P-labeled at the 5′-end of the upstream strand and is illustrated above the gel. The experiments were repeated at least three times. Representative gel is illustrated. Quantification of the results is shown below the gel. Two-way ANOVA with Tukey's multiple comparison posttests was used to determine statistically significant differences. * signifies p<0.05 compared to the control reaction with LIG I and DMSO. […] Lane 1 represents the substrate only. Lanes 2 and 3 indicates the reaction mixture with 5 nM pol β in the absence and presence of DMSO. […] The substrate was ^32P-labeled at the 5′-end of the upstream strand and is illustrated above the gel. The experiments were repeated at least three times. Quantification of the results are shown below the gel. Two-way ANOVA with Tukey's multiple comparison posttests was used to determine statistical significance. * signifies p<0.05 compared to the control reaction with pol β and DMSO.
(§2) BER reactions were terminated by adding 2× stopping buffer containing 95% formamide and 10 mM EDTA. Reaction mixtures were then denatured at 95° C. for 5 min and separated by 15% urea-denaturing polyacrylamide gel electrophoresis. Substrates and products were detected and analyzed using a Pharos FX Plus PhosphorImager (Bio-Rad, Hercules, Calif.).

RWPE1 cells [1] = experiment: Cell Titer Glo cell viability assay, RWPE1; assay type: cell-based; conditions: 10 μM; after 24 h and 48 h; serum free medium with EGF and BPE
Protocol: FIGS. 4A-4B show cellular toxicity of lead compounds in nonmalignant androgen independent prostate-derived cell lines. (4A) PNT1A cells were plated in a 96-well plate at 1×10^4 cell/well in the presence of FBS or CSS. Cells were allowed to attach overnight and were treated with either vehicle (DMSO) or 10 μM of indicated compound. At 24 and 48 h, cellular viability was compared using the Cell Titer Glo Luminescent Cell Viability kit. (4B) RWPE1 cells were plated in a 96-well plate at 1×10^4 cells/well using the specified serum free media. Cells were allowed to attach overnight and treated with 10 μM of indicated compound.
(§3) Cell viability was determined using the Cell Titer Glo Cell Viability Assay (Promega, Madison, Wis.), as recommended by manufacturer. All experiments were performed in quadruplicate.
Next, whether the same concentration of compounds decreases the viability of the AR negative and nonmalignant prostate derived cells, PNT1A and RWPE1, was tested.

FEN1 = FEN1 (Homo sapiens, UniProt P39748); experiment: FEN1 activity; assay type: biochemical
Sequence of FEN1 (P39748 whole entry): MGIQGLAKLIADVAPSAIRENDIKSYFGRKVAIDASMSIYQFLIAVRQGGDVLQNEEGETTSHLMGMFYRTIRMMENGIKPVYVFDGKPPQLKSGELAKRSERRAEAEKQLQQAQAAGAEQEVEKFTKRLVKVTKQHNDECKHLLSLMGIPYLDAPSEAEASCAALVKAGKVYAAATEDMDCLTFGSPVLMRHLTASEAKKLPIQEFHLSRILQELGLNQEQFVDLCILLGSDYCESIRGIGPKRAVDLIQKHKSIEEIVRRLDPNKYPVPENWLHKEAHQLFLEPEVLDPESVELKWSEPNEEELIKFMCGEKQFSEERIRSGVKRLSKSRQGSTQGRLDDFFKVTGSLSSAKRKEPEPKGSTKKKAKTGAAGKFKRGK
Protocol: 10 μM hit compounds were incubated with 10 nM pol β, 10 nM FEN1 and 20 nM LIG I in BER reaction buffer containing 50 mM Tris-HCl (pH 7.5), 50 mM KCl, 0.1 mM EDTA, 0.1 mg/ml bovine serum albumin, and 0.01% Nonidet P-40 in the presence of 5 mM Mg^2+ and 2 mM ATP. The compounds were initially preincubated with a BER enzyme at varying concentrations for 1 h with rotation. This was followed by the addition of 25 nM ^32P-labeled substrate containing an abasic site, which was precut with 25 or 50 nM APEI. The reaction mixture (20 μL) was incubated at 37° C. for 30 min, and the reaction was terminated by 50 mM EDTA. Substrates, products, and unrepaired BER intermediates were separated by 15% urea-denaturing sequencing gel and detected by a Pharos FX Plus PhosphorImager (Bio-Rad, Hercules, Calif.).

LAPC4 cells = experiment: Cell Titer Glo cell viability assay, LAPC4; assay type: cell-based, human; conditions: 10 μM; androgen depleted conditions (CSS); 24 and 48 h
Protocol: (§4) FIGS. 3A-3B show cellular toxicity of the lead compounds in androgen-dependent prostate cancer cell lines. (3A) LNCaP cells were plated in a 96-well plate at 1×10^4 cells/well in the presence of Fetal Bovine Serum (FBS) or Charcoal stripped Serum (CSS). Cells were allowed to attach overnight and were treated with either vehicle (DMSO) or 10 μM of indicated compound. At 24 and 48 h cellular viability was compared using the Cell Titer Glo Luminescent Cell Viability kit. (3B) LAPC4 cells were plated in a 96-well plate at a density of 1×10^4 cells/well in the presence of FBS or CSS. Cells were allowed to attach overnight and treated with 10 μM of indicated compound.
as §3

LNCaP cells [2] = experiment: Cell Titer Glo cell viability assay, LNCaP; assay type: cell-based; conditions: 10 μM; androgen depleted conditions (CSS); 24 and 48 h
Protocol: as §4, §3

pol β = pol β (Homo sapiens, UniProt P06746); experiment: Pol β DNA synthesis on 1-nt gap substrate; assay type: biochemical
Protocol: as §1, §2

LNCaP cells [3] = experiment: RTCA impedance proliferation assay, LNCaP; assay type: cell-based; conditions: 10 μM; for LNCaP cell proliferation, concentration dependence: 1 μM and 0.1 μM
Protocol: (5A-5B) LNCaP cells were plated onto xCelligence E-plates at 10^4 cells per well in medium supplemented with either 10% FBS (5A) or 10% CSS (5B) serum. […] (5C-5D) LAPC4 cells were plated at 5×10^4 cells per well onto xCelligence E-plates in media supplemented with FBS (5C) or CSS (5D) and allowed to attach overnight. Treatment was conducted as in (5A-5B) and impedance measured continuously in 30 min intervals. […] Background impedance was established after incubating E-plates (Acea Biosciences, San Diego, Calif.) with 50 μL media at room temperature for 30 min and placed in RTCA. Cells were then seeded in 100 μL per well. Cells attached overnight and then treated. During attachment stage and after treatment impedance was measured every 30 min. Impedance is represented by cell index and is calculated as follows: CI=(Zi−Zo)/15Ω where Zi is impedance at an individual time point, and Zo is the background impedance. Average CI was calculated from four wells per treatment at each time point and normalized to the impedance immediately after compound addition.

RWPE1 cells [4] = experiment: RTCA impedance proliferation assay, RWPE1; assay type: cell-based; conditions: 10 μM; serum free medium
Protocol: (6A-6B) PNT1A cells were plated onto xCelligence E-plates at 5×10^4 cells per well in media supplemented with 10% FBS (6A) or CSS (6B). Cells were allowed to attach overnight and treated with vehicle (DMSO) or 10 μM of indicated compounds. Cellular impedance was monitored continuously with 30 min intervals. (6C) RWPE1 cells were plated at 5×10^4 cells per well in serum free medium supplemented with Epidermal Growth Factor (EGF) and Bovine Pituitary Extract ([…]) onto E-plates and treated with 10 μM of indicated compounds as indicated. […] Proliferation assays were done using Roche DP Real Time Cell Analyzer (RTCA), as described by the manufacturer. Background impedance was established after incubating E-plates (Acea Biosciences, San Diego, Calif.) with 50 μL media at room temperature for 30 min and placed in RTCA. Cells were then seeded in 100 μL per well. Cells attached overnight and then treated. During attachment stage and after treatment impedance was measured every 30 min. Impedance is represented by cell index and is calculated as follows: CI=(Zi−Zo)/15Ω where Zi is impedance at an individual time point, and Zo is the background impedance. Average CI was calculated from four wells per treatment at each time point and normalized to the impedance immediately after compound addition.

Sequence of LIG I (P18858 whole entry): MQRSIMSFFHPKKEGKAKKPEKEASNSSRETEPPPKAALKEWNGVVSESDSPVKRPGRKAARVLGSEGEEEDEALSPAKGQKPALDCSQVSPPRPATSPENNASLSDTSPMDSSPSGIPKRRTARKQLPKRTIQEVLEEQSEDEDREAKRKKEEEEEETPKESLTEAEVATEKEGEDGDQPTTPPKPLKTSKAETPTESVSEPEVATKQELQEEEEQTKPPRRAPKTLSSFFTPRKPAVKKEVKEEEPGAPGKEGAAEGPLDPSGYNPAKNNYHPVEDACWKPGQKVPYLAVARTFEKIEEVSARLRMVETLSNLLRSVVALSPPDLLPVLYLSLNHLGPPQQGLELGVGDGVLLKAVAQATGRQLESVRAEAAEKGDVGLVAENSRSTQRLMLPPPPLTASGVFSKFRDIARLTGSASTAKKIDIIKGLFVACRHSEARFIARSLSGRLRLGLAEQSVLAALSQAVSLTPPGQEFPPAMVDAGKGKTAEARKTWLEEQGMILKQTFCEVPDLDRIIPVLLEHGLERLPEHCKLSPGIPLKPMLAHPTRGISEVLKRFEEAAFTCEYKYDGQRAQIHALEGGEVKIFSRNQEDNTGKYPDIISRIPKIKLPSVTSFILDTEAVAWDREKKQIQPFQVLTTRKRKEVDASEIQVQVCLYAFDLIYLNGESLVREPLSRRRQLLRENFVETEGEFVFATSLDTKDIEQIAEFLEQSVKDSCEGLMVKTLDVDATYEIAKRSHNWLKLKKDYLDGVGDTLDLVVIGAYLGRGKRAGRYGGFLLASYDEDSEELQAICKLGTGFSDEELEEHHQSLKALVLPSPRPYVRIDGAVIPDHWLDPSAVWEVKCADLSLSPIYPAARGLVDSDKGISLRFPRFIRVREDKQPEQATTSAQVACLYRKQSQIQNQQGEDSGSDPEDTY

In the case of `C[C@@H]1C/C=C/C=C/C=C/C=C/[C@H](O[C@@H]2O[C@H](C)[C@@H](O)[C@H](N)[C@@H]2O)C[C@@H]2O[C@](O)(C[C@@H](O)C[C@H]3O[C@@H]3/C=C/C(=O)O1)C[C@H](O)[C@H]2C(=O)O` [natamycin], the “reduction of the activity of LIG I” value (LIG I; 0.5 μM natamycin) is reported as 3.5 fold, the “decrease of the activity of LIG I” value (LIG I; 5 μM natamycin) is reported as 14 fold and the “reduction of the activity of LIG I” value (LIG I; at 1 (unit not given) natamycin) is reported as 3.5 fold. For the same molecule, the RWPE1 cell viability (RWPE1 cells [1]) was “significantly decreased”, the “inhibitory effect on FEN1” value (FEN1) was “No inhibitory effect” and the “toxicity (cell viability) in LAPC4” value (LAPC4 cells) was “highest toxicity”. The “toxicity (cell viability) in LNCaP” value (LNCaP cells [2]) was “highest toxicity”, the “pol β 1 nt gap-filling synthesis” value (pol β; FIG. 8B, lanes 5-7) was “did not inhibit” and the “pol β strand-displacement synthesis” value (pol β; at 2 nM-5 nM) was “significant inhibitory effect”. The “reduction of pol β activity” value (pol β; at 10 (unit not given) natamycin, 5 nM pol β) was 3 fold, the “LNCaP cell proliferation, concentration dependence” value (LNCaP cells [3]; FBS medium) was “significantly inhibited by all concentrations” and the “LNCaP cell proliferation, concentration dependence” value (LNCaP cells [3]; medium with CSS) was 10 μM and 1 μM were inhibitory. For the same molecule, the LNCaP cellular proliferation (LNCaP cells [3]; FBS) was “slowest proliferation rate”, the LNCaP cellular impedance (LNCaP cells [3]; androgen depleted medium (CSS)) was “abolished cellular impedance” and the RWPE1 proliferation (RWPE1 cells [4]) was “slightly inhibited”.
